What is called chromatographic logP is lipophilicity estimated from chromatographic retention.

The nature of the data set: LogPOW, octanol-water partition coefficient calculated from HPLC elution time via calibration curve. The format is physicochemical. Conditions: partition coefficient between 1-octanol and water, ODS-120T column, acetonitrile/0.6 mass % HClO4 aq. 1/1, 40° C. As to the method:
The LogPOW value is a partition coefficient between 1-octanol and water, and is represented by LogP, wherein P represents the ratio of (fluorosurfactant concentration in octanol)/(fluorosurfactant concentration in water) when an octanol/water (1:1) liquid mixture containing a fluorosurfactant is phase-separated.
The octanol-water partition coefficient represented by LogPOW is calculated as follows. HPLC is performed on standard substances (heptanoic acid, octanoic acid, nonanoic acid, and decanoic acid) each having a known octanol-water partition coefficient using TOSOH ODS-120T column (ϕ4.6 mm×250 mm) as a column and acetonitrile/0.6 mass % HClO4 aqueous solution=1/1 (vol/vol %) as an eluent at a flow rate of 1.0 ml/min, a sample amount of 300 μL, and a column temperature of 40° C., with detection light UV 210 nm. A calibration curve between the respective elution times and the known octanol-water partition coefficients is drawn, and the LogPOW value is calculated from the elution time of the sample liquid in HPLC based on the calibration curve.

Turning to `N.O=C(O)C(F)(OC(F)(F)C(F)(OC(F)(F)F)C(F)(F)F)C(F)(F)F` (centres unmarked) [CF3OCF(CF3)CF2OCF(CF3)COONH4], the LogPOW value is given as ≤ 3.4.

In the case of `O=C(O)C(F)(F)C(F)(F)C(F)(F)C(F)(F)C(F)(F)C(F)(F)C(F)(F)F` [PFOA, ammonium perfluorooctanoate], the chromatographic logP is 3.5.

The values above are taken from patent US11084895B2, “Modified polytetrafluoroethylene fine powder and uniaxially stretched porous body” (DAIKIN INDUSTRIES, LTD., priority 2013, dated 2021).
